Test systems include SK-OV-3 ovarian; BT-549 breast; OVCAR-5 ovarian; SF-268 CNS; SK-MEL-5 melanoma; HOP-62 NSCLC; MALME-3M melanoma; COLO 205 colon; A549 NSCLC; UO-31 renal; CCRF-CEM leukemia.
Common to all, as to assay: growth of human tumour cells (NCI), 48 h

The structures appear in SMILES notation.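 Growth conditions: 96-well plates. Treatment: test compound, 48 hours, 5 concentrations. Analysis: linear interpolation between bracketing concentrations; unreached endpoints set to highest concentration. TGI is the concentration that stops growth completely.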

`O=C(Nc1ccc(Cl)cc1)c1cc(S(=O)(=O)Nc2n[nH]c(=O)[nH]2)c(SSc2cc(Cl)c(C(=O)Nc3ccc(Cl)cc3)cc2S(=O)(=O)Nc2n[nH]c(=O)[nH]2)cc1Cl`: the TGI in the assay with SK-OV-3 ovarian, in the assay on BT-549 breast, in the assay with OVCAR-5 ovarian, in the assay with SF-268 CNS, in the assay with SK-MEL-5 melanoma and in the assay with HOP-62 NSCLC was more than 100 µM in each case. For the same molecule, the TGI in the assay on MALME-3M melanoma, with COLO 205 colon, in the assay with A549 NSCLC, in the assay with UO-31 renal and in the assay with CCRF-CEM leukemia was more than 100 µM each time.

Take `CCOC(=O)c1ccc(N=C2SC(=S)N(c3ccc(F)cc3)C2=Nc2ccc(C(=O)OCC)cc2)cc1`: the TGI in the assay with SK-OV-3 ovarian is more than 100 µM; with BT-549 breast it was 40.6 µM; in the assay with OVCAR-5 ovarian, 38.7 µM; in the assay on SF-268 CNS, more than 37.6 µM; in the assay with SK-MEL-5 melanoma, 25.1 µM; in the assay on HOP-62 NSCLC, more than 89 µM. Also, the TGI with MALME-3M melanoma was 36.6 µM; in the assay on COLO 205 colon it was 40.3 µM; in the assay with A549 NSCLC, more than 84.9 µM; with UO-31 renal it was 28 µM; in the assay on CCRF-CEM leukemia, more than 57.6 µM.

Take `COc1ccc2c(c1)/C(=C(\C(Cl)=C(\Cl)N1CCCCC1)[N+](=O)[O-])N2`: the TGI in the assay with SK-OV-3 ovarian, in the assay with BT-549 breast, with OVCAR-5 ovarian, in the assay with SF-268 CNS, in the assay on SK-MEL-5 melanoma and in the assay on HOP-62 NSCLC was more than 100 µM each time. The TGI in the assay with MALME-3M melanoma, with COLO 205 colon, in the assay with A549 NSCLC, with UO-31 renal and in the assay with CCRF-CEM leukemia was more than 100 µM in each case.

As for `C=CCN1CCC(OC(=O)C(O)(/C=C\CC)C2CCCC2)CC1` (configuration not stated), the TGI in the assay with SK-OV-3 ovarian, in the assay with BT-549 breast, in the assay with OVCAR-5 ovarian, with SF-268 CNS, with SK-MEL-5 melanoma and with HOP-62 NSCLC was more than 100 µM in each case. Also, the TGI in the assay on MALME-3M melanoma, with COLO 205 colon, with A549 NSCLC, in the assay with UO-31 renal and in the assay with CCRF-CEM leukemia was more than 100 µM each time.

As for `CCOC(=O)C(SCCO)C(C(=O)OCC)n1ccc(N)nc1=O` (configuration not stated), the TGI in the assay with SK-OV-3 ovarian, in the assay with BT-549 breast, with OVCAR-5 ovarian, in the assay on SF-268 CNS, in the assay on SK-MEL-5 melanoma and in the assay on HOP-62 NSCLC was more than 100 µM throughout. In addition, the TGI with MALME-3M melanoma, in the assay with COLO 205 colon, with A549 NSCLC, with UO-31 renal and in the assay with CCRF-CEM leukemia was more than 100 µM each time.

Turning to `COc1cc2c(cc1C)NC(=O)/C2=C/c1c(Cl)[nH]c2cc(C)c(OC)cc12`, the TGI with SK-OV-3 ovarian was 5.56 µM; with BT-549 breast it was 9.92 µM; with OVCAR-5 ovarian, 25.8 µM; with SF-268 CNS it was 18.7 µM; in the assay with SK-MEL-5 melanoma it was 10.6 µM; in the assay with HOP-62 NSCLC it was 23.2 µM. Also, the TGI was 25.4 µM in the assay with MALME-3M melanoma; 12.7 µM in the assay on COLO 205 colon; 28.7 µM in the assay with A549 NSCLC; 23.4 µM in the assay with UO-31 renal; 5.16 µM in the assay on CCRF-CEM leukemia.

For the molecule `C=C1CC(OC(C)=O)/C=C(/C)CCC(C(C)(C)O)CC1O` (configuration not stated), the TGI in the assay on SK-OV-3 ovarian, with BT-549 breast, with OVCAR-5 ovarian, in the assay with SF-268 CNS, in the assay with SK-MEL-5 melanoma and in the assay on HOP-62 NSCLC was more than 100 µM throughout. The TGI in the assay on MALME-3M melanoma, in the assay with COLO 205 colon, in the assay on A549 NSCLC, in the assay with UO-31 renal and in the assay with CCRF-CEM leukemia was more than 100 µM in each case.

Consider `COc1ccc2c(c1)/C(=C(\C(Cl)=C(Cl)Cl)[N+](=O)[O-])N2`, for which the TGI with SK-OV-3 ovarian, with BT-549 breast, in the assay with OVCAR-5 ovarian, in the assay on SF-268 CNS, in the assay with SK-MEL-5 melanoma and with HOP-62 NSCLC was more than 100 µM each time. Further, the TGI in the assay on MALME-3M melanoma, in the assay with COLO 205 colon, with A549 NSCLC, with UO-31 renal and in the assay with CCRF-CEM leukemia was more than 100 µM each time.

Regarding `CCCCc1ccc(Nc2nc3c(ncn3C3OC(COC(C)=O)C(OC(C)=O)C3OC(C)=O)c(=O)[nH]2)cc1` (configuration not stated), the TGI in the assay with SK-OV-3 ovarian is 71.1 µM; in the assay on BT-549 breast, 32.2 µM; in the assay with OVCAR-5 ovarian, more than 100 µM; in the assay with SF-268 CNS it was 37.7 µM; in the assay on SK-MEL-5 melanoma it was 31.1 µM; in the assay with HOP-62 NSCLC, 35.5 µM. Also, the TGI with MALME-3M melanoma was 36.8 µM; in the assay on COLO 205 colon it was 37.7 µM; in the assay with A549 NSCLC, more than 100 µM; in the assay with UO-31 renal, more than 100 µM; in the assay with CCRF-CEM leukemia, 35.1 µM.

Regarding `C1CNCCN2CCCNCCN(C1)CC2`, the TGI with SK-OV-3 ovarian, with BT-549 breast, with OVCAR-5 ovarian, in the assay on SF-268 CNS, in the assay on SK-MEL-5 melanoma and with HOP-62 NSCLC was more than 100 µM each time. Besides, the TGI is more than 100 µM in the assay with MALME-3M melanoma; more than 100 µM with COLO 205 colon; more than 100 µM with A549 NSCLC; more than 100 µM in the assay with UO-31 renal; 37.9 µM with CCRF-CEM leukemia.

Take `CCN(CC)CCN1c2ccccc2Sc2ccc3ccccc3c21`: the TGI was found to be 29.4 µM in the assay on SK-OV-3 ovarian; 29.9 µM with BT-549 breast; 23 µM with OVCAR-5 ovarian; 35.1 µM in the assay with SF-268 CNS; 10.2 µM with SK-MEL-5 melanoma; 29 µM with HOP-62 NSCLC. For the same molecule, the TGI in the assay with MALME-3M melanoma amounted to 32.5 µM; with COLO 205 colon, 15.9 µM; with A549 NSCLC, 27.8 µM; in the assay on UO-31 renal, 19.1 µM; with CCRF-CEM leukemia, 15 µM.

As to `CS(C)(=O)=N/C=C\C(=O)C(Cl)(Cl)Cl`, the TGI in the assay on SK-OV-3 ovarian, in the assay with BT-549 breast, in the assay on OVCAR-5 ovarian, in the assay with SF-268 CNS, in the assay on SK-MEL-5 melanoma and in the assay on HOP-62 NSCLC was more than 100 µM in each case. The TGI in the assay on MALME-3M melanoma, with COLO 205 colon, in the assay with A549 NSCLC, in the assay with UO-31 renal and in the assay on CCRF-CEM leukemia was more than 100 µM throughout.

`c1ccc(Cc2cccc3cc(-c4ccc(-c5ccccc5)cc4)[nH]c23)cc1`: the TGI with SK-OV-3 ovarian, with BT-549 breast, in the assay on OVCAR-5 ovarian, with SF-268 CNS, in the assay on SK-MEL-5 melanoma and with HOP-62 NSCLC was more than 100 µM throughout. Besides, the TGI with MALME-3M melanoma is 54 µM; with COLO 205 colon it was more than 100 µM; in the assay with A549 NSCLC, more than 100 µM; in the assay on UO-31 renal, more than 100 µM; in the assay on CCRF-CEM leukemia it was more than 100 µM.

As for `NC(=O)c1cnc2sc3ccccc3n2c1=O`, the TGI in the assay on SK-OV-3 ovarian, in the assay with BT-549 breast, in the assay with OVCAR-5 ovarian, in the assay on SF-268 CNS, in the assay on SK-MEL-5 melanoma and with HOP-62 NSCLC was more than 100 µM in each case. Moreover, the TGI in the assay on MALME-3M melanoma, in the assay with COLO 205 colon, in the assay with A549 NSCLC, in the assay with UO-31 renal and in the assay on CCRF-CEM leukemia was more than 100 µM each time.

`COc1cc(/C=C2\C(=O)N(c3cccc(Cl)c3)C(c3ccccc3)S2(=O)=O)cc(OC)c1OC` (configuration not stated): the TGI in the assay on SK-OV-3 ovarian, with BT-549 breast, in the assay with OVCAR-5 ovarian, in the assay with SF-268 CNS, in the assay on SK-MEL-5 melanoma and in the assay with HOP-62 NSCLC was more than 100 µM throughout. Moreover, the TGI in the assay on MALME-3M melanoma was more than 100 µM; with COLO 205 colon, more than 100 µM; in the assay with A549 NSCLC, more than 100 µM; with UO-31 renal it was more than 100 µM; with CCRF-CEM leukemia, 71.8 µM.

Turning to `NS(=O)(=O)c1ccc(NNC(=O)c2cccc3c(=O)c4ccccc4[nH]c23)cc1`, the TGI in the assay on SK-OV-3 ovarian, in the assay with BT-549 breast, in the assay on OVCAR-5 ovarian, in the assay on SF-268 CNS, with SK-MEL-5 melanoma and in the assay on HOP-62 NSCLC was more than 100 µM throughout. Also, the TGI in the assay on MALME-3M melanoma, in the assay with COLO 205 colon, with A549 NSCLC, with UO-31 renal and in the assay with CCRF-CEM leukemia was more than 100 µM each time.

`Cc1ccnc(NS(=O)(=O)c2ccc(NC(=O)c3ccc4nc5ccccc5c(Nc5ccc(S(=O)(=O)Nc6nccc(C)n6)cc5)c4c3)cc2)n1`: the TGI was more than 100 µM in the assay with SK-OV-3 ovarian; 32.6 µM in the assay on BT-549 breast; more than 100 µM in the assay with OVCAR-5 ovarian; more than 100 µM with SF-268 CNS; more than 100 µM with SK-MEL-5 melanoma; more than 100 µM in the assay with HOP-62 NSCLC. For the same molecule, the TGI in the assay on MALME-3M melanoma, in the assay with COLO 205 colon, in the assay with A549 NSCLC, with UO-31 renal and in the assay with CCRF-CEM leukemia was more than 100 µM in each case.
